{"source": "patent US20230149374A1", "about": "“METHODS AND COMPOSITIONS FOR TREATING ATHEROSCLEROSIS” (Sanford Burnham Prebys Medical Discovery Institute, priority 2021, published 2023)", "type_in_all_cases": "in vivo, mouse", "key": {"ApoE-deficient mice [1]": {"test_system": "ApoE-deficient mice", "experiment": "Quantitative PCR of transcript levels in the liver", "settings": "30 mg/kg/day, 25 weeks, vs control"}, "ApoE-deficient mice [2]": {"test_system": "ApoE-deficient mice", "experiment": "Tolerability: mortality and body weight", "settings": "30 mg/kg/day, treatment up to 21 weeks", "excerpt": "Four cohorts of mice were used in these studies (FIGS. 8A and 9A). Cohorts 1 and 2 were devoted to the in vivo and ex vivo characterization of TNAP-associated plaque calcification. 6-week-old ApoE-deficient male mice were received at the animal facility and placed in conventional cages with 5 mice per cage. Mice were maintained on a 12-hrs light-dark cycle (7:00 am-7:00 pm) and were supplied with food and water ad libitum. From 10 weeks of age, they were fed ad libitum with a high fat diet (HFD, D12108C, Research Diets, New Brunswick, USA) containing 40% fat (kcal) and 1.25% cholesterol (weight). In cohort 1, 8 mice were sacrificed every 2 weeks between weeks 17 to 31, for histological and molecular analyses. Total body weight was measured weekly after starting the HFD. The sacrifice was done after anesthesia with isoflurane and intracardiac blood puncture by CO2 inhalation. Tissues were harvested as described below. The abdominal aorta was used for quantitative polymerase chain reaction (PCR) analyses. Mice from cohort 2 were used to analyze aorta calcification with ^18F—NaF μPET and μCT and to compare the in vivo data with the ex vivo results obtained in cohort 1. Animals were transferred from the animal facility to the Cermep imaging platform. […] Plaque calcification was analyzed at 25 weeks, and possible side effects of TNAP inhibition were explored in mice aged 31 weeks. […]"}, "ApoE-deficient mice [3]": {"test_system": "ApoE-deficient mice", "experiment": "Quantitative PCR of transcript levels in the abdominal aorta", "settings": "30 mg/kg/day, 25 weeks, vs control", "excerpt": "(§1) Four cohorts of mice were used in these studies (FIGS. 8A and 9A). Cohorts 1 and 2 were devoted to the in vivo and ex vivo characterization of TNAP-associated plaque calcification. 6-week-old ApoE-deficient male mice were received at the animal facility and placed in conventional cages with 5 mice per cage. Mice were maintained on a 12-hrs light-dark cycle (7:00 am-7:00 pm) and were supplied with food and water ad libitum. From 10 weeks of age, they were fed ad libitum with a high fat diet (HFD, D12108C, Research Diets, New Brunswick, USA) containing 40% fat (kcal) and 1.25% cholesterol (weight). In cohort 1, 8 mice were sacrificed every 2 weeks between weeks 17 to 31, for histological and molecular analyses. Total body weight was measured weekly after starting the HFD. The sacrifice was done after anesthesia with isoflurane and intracardiac blood puncture by CO2 inhalation. Tissues were harvested as described below. The abdominal aorta was used for quantitative polymerase chain reaction (PCR) analyses. Mice from cohort 2 were used to analyze aorta calcification with ^18F—NaF μPET and μCT and to compare the in vivo data with the ex vivo results obtained in cohort 1. Animals were transferred from the animal facility to the Cermep imaging platform. Cohorts 3 and 4 were used to determine in vivo and ex vivo the impact of TNAP inhibition on the vasculature, liver, bones, and kidneys. According to the results obtained in cohorts 1 and 2, TNAP inhibitor SBI-425 (30 mg/kg/day, formulated as a food admixture in the HFD) was administered in a preventive manner from 10 weeks of age. Treatment was stopped at 25 weeks or 31 weeks of age. Plaque calcification was analyzed at 25 weeks, and possible side effects of TNAP inhibition were explored in mice aged 31 weeks. Mice in cohort 3 (2 groups of 13 mice) were used for ex vivo analysis, and mice in cohort 4 (2 groups of 12 mice) for in vivo imaging and ex vivo analyses.\nMouse tissues: total RNAs were extracted from grinded abdominal aorta with the NucleoSpin RNA II kit (Macherey-Nagel) following the manufacturers' protocol. The quantity and quality of RNA were determined using a NanoDrop. RNA (1 μg) was retro-transcribed into cDNA with Superscript II reverse transcriptase (Life Technologies). PCR analysis was conducted using SYBR green Supermix (Biorad) on the iCycler Real-Time Detection system (Biorad). Fold change in mRNA expression was calculated using the 2^−Δcq method by the CFX Manager software (Biorad). Data were normalized by 3 housekeeping genes (HPRT, Actin and Rpl13a) levels."}, "ApoE-deficient mice [4]": {"test_system": "ApoE-deficient mice", "experiment": "Serum analyses (cholesterol, triglycerides, bile acids, IL-6, haptoglobin, glucose, LPS)", "excerpt": "as §1\nAfter overnight fasting, blood was collected from mice by cardiac puncture under anesthesia with isoflurane. Serum was obtained through centrifugation of the blood for 15 min at 1,500 g at 4° C. and stored at −80° C. before analysis. Concentration of total cholesterol and triglycerides were measured using a colorimetric (MAK043, Sigma) and a fluorimetric assay (MAK266, Sigma), respectively. Total bile acids were assayed with a commercial enzyme-based colorimetric kit (Abcam Ab239702). Serum IL-6 and haptoglobin levels were determined using the commercially available ELISA kits (Fischer Scientific 10110623 and Abcam 157714, respectively). The alkaline phosphatase activity assay was performed in a 96-well plate. Briefly, sera were mixed with a concentrated buffer at a ratio of 2.85:1 (vol/vol) in order to get final concentration of 0.56 M 2-amino-2-methyl-1-propanol buffer pH 10.5, 1 mM MgCl2 and 10 mM p-nitrophenylphosphate. Absorbance was acquired for 5 min at 405 nm (Tecan plate reader). The slope was calculated to determine TNAP activity levels in each sample and normalized to protein amounts measured with the BCA protein assay (Pierce)."}, "ApoE-deficient mice [5]": {"test_system": "ApoE-deficient mice", "experiment": "Liver content of cholesterol, triglycerides, bile acids, hydroxyproline", "settings": "30 mg/kg/day, 25 weeks, vs control", "excerpt": "as §1\nFor the determination of cholesterol, triglycerides, and total bile acids in liver, 40-mg pieces of liver were homogenized in 1 mL of 5% NP40 solution in a dounce homogenizer. The hydrophobic components were extracted twice at 80° C. for 5 minutes. The samples were centrifuged, and the supernatants were assayed for cholesterol, triglycerides and bile acids with the same kits used for blood. In order to quantify hydroxyproline, 100 mg pieces of liver were homogenized in 1 mL of pure water in a dounce homogenizer and a perchlorate-free kit from Sigma was used (MAK357)."}, "[6]": {"settings": "ApoE-deficient mice, 30 mg/kg/day, 25 weeks, fasting, vs control"}, "[7]": {"settings": "ApoE-deficient mice, 30 mg/kg/day, 25 weeks, vs control"}}, "note": "Entries after “also recorded” stand apart in the source; their conditions may differ.", "data": [{"smiles": "COc1ccc(Cl)cc1S(=O)(=O)Nc1cncc(C(N)=O)c1", "note": "[SBI-425]", "values": [{"measurement": "Abcg8 transcript level, liver", "setting": "ApoE-deficient mice [1]", "result": "did not change"}, {"measurement": "Cyp7a1 transcript level, liver", "setting": "ApoE-deficient mice [1]", "result": "did not change"}, {"measurement": "Cyp7b1 transcript level, liver", "setting": "ApoE-deficient mice [1]", "result": "did not change"}, {"measurement": "Fas transcript level (fatty acid synthesis), liver", "setting": "ApoE-deficient mice [1]", "result": "nor were the levels of transcripts associated with fatty acid synthesis (Srebp1c, Fas) (FIGS. 6B-6G) changed"}, {"measurement": "Hmgcr transcript level, liver", "setting": "ApoE-deficient mice [1]", "result": "did not change"}, {"measurement": "Hp transcript level (liver inflammation)", "setting": "ApoE-deficient mice [1]", "result": "unchanged"}, {"measurement": "Il1b transcript level (liver inflammation)", "setting": "ApoE-deficient mice [1]", "result": "unchanged"}, {"measurement": "Ly6g transcript level (liver inflammation)", "setting": "ApoE-deficient mice [1]", "result": "unchanged"}, {"measurement": "Scarb1 transcript level, liver", "setting": "ApoE-deficient mice [1]", "result": "did not change"}, {"measurement": "Srebp1c transcript level (fatty acid synthesis), liver", "setting": "ApoE-deficient mice [1]", "result": "nor were the levels of transcripts associated with fatty acid synthesis (Srebp1c, Fas) (FIGS. 6B-6G) changed"}, {"measurement": "Tnfa transcript level (liver inflammation)", "setting": "ApoE-deficient mice [1]", "result": "unchanged"}, {"measurement": "body weight", "setting": "ApoE-deficient mice [2]", "result": "no effect; also recorded: did not significantly change"}, {"measurement": "mortality", "setting": "ApoE-deficient mice [2]", "result": "no effect"}, {"measurement": "Acan transcript level (chondrocyte marker), abdominal aorta", "setting": "ApoE-deficient mice [3]", "result": "not accompanied by reduced levels"}, {"measurement": "Alpl transcript level (chondrocyte marker), abdominal aorta", "setting": "ApoE-deficient mice [3]", "result": "not accompanied by reduced levels"}, {"measurement": "Cd68 transcript level (inflammatory marker), abdominal aorta", "setting": "ApoE-deficient mice [3]", "result": "significantly decreased"}, {"measurement": "Il6 transcript level (inflammatory marker), abdominal aorta", "setting": "ApoE-deficient mice [3]", "result": "significantly decreased"}, {"measurement": "Il8 transcript level (inflammatory marker), abdominal aorta", "setting": "ApoE-deficient mice [3]", "result": "significantly decreased"}, {"measurement": "Opn transcript level (inflammatory marker), abdominal aorta", "setting": "ApoE-deficient mice [3]", "result": "significantly decreased"}, {"measurement": "Rankl transcript level (inflammatory marker), abdominal aorta", "setting": "ApoE-deficient mice [3]", "result": "significantly decreased"}, {"measurement": "Runx2 transcript level (chondrocyte marker), abdominal aorta", "setting": "ApoE-deficient mice [3]", "result": "not accompanied by reduced levels"}, {"measurement": "Sox9 transcript level (chondrocyte marker), abdominal aorta", "setting": "ApoE-deficient mice [3]", "result": "not accompanied by reduced levels"}, {"measurement": "serum levels of cholesterol", "setting": "ApoE-deficient mice [4]; [6]", "result": "significantly decreased"}, {"measurement": "serum levels of triglycerides (TGs)", "setting": "ApoE-deficient mice [4]; [6]", "result": "significantly decreased"}, {"measurement": "fasting glycemia", "setting": "ApoE-deficient mice [4]; [7]", "result": "did not modulate"}, {"measurement": "serum IL-6 levels", "setting": "ApoE-deficient mice [4]; [7]", "result": "reduced serum IL-6 levels, although not significantly"}, {"measurement": "serum bile acids levels", "setting": "ApoE-deficient mice [4]; [7]", "result": "did not change"}, {"measurement": "serum haptoglobin levels", "setting": "ApoE-deficient mice [4]; [7]", "result": "nor changed"}, {"measurement": "systemic inflammation", "setting": "ApoE-deficient mice [4]; mouse experiments, administration for several months", "result": "did not significantly change"}, {"measurement": "liver TG content", "setting": "ApoE-deficient mice [5]", "result": "not increased"}, {"measurement": "liver bile acids levels", "setting": "ApoE-deficient mice [5]", "result": "did not change"}, {"measurement": "liver cholesterol levels", "setting": "ApoE-deficient mice [5]", "result": "did not change"}, {"measurement": "liver hydroxyproline levels (liver fibrosis)", "setting": "ApoE-deficient mice [5]", "result": "unchanged"}]}]}
